For series [1], the system named is Plasmodium yoelii. Description: In vivo antimalarial activity against chloroquine resistant Plasmodium yoelii N-67 infected in Swiss albino mouse assessed as suppression of parasitemia at 10 mg/kg relative to control. Format: functional.
The next series relates to HepG2. Description: Cytotoxicity against human HepG2 cells. Format: functional, cell-based.
In the next series the test system is A549. Description: Cytotoxicity against human A549 cells. In kind it is functional.
The nature of series [2]: Cytotoxicity against human HEK293 cells. Format: toxicity, cell-based.
Series [3] concerns Plasmodium falciparum. Description: Antimalarial activity against Plasmodium falciparum Dd2. Format: functional, organism-based.
Series [4] deals with Plasmodium falciparum. As to the kind of experiment: Antimalarial activity against chloroquine sensitive Plasmodium falciparum 3D7 incubated for 72 hrs by SYBR green I assay. Format: functional, organism-based. To be noted: 3D7, 72 h.
Series [5] has as its system Plasmodium falciparum. Description: Antimalarial activity against chloroquine resistant Plasmodium falciparum K1 infected in human erythrocytes by microplate fluorometric detection method. Format: functional, organism-based.
In series [6] the test system is Plasmodium falciparum. Description: Antimalarial activity against chloroquine sensitive Plasmodium falciparum T96 infected in human erythrocytes by microplate fluorometric detection method. In kind it is functional, organism-based.
Series [7] deals with Plasmodium falciparum. As to the kind of experiment: Antimalarial activity against chloroquine sensitive Plasmodium falciparum 3D7 incubated for 72 hrs by malaria SYBR green I nucleic acid staining dye based fluorescence assay. In kind it is functional, organism-based. To be noted: 3D7, 72 h.
Series [8] deals with Plasmodium falciparum. As to the kind of experiment: Antimalarial activity against chloroquine resistant Plasmodium falciparum K1 incubated for 72 hrs by malaria SYBR green I nucleic acid staining dye based fluorescence assay. In kind it is functional, organism-based. To be noted: K1, 72 h.
The subject of series [9] is Plasmodium yoelii. As to the kind of experiment: In vivo antimalarial activity against chloroquine resistant Plasmodium yoelii N-67 infected in Swiss albino mouse assessed as suppression of parasitemia at 25 mg/kg measured upto 28 days relative to control. In kind it is functional. To be noted: time <= 28 day.
The test system of series [10] is Plasmodium falciparum. As to the kind of experiment: Antimalarial activity against chloroquine resistant Plasmodium falciparum Dd2 incubated for 72 hrs by malaria SYBR green I based assay. To be noted: Dd2, 72 h. Format: functional, organism-based.
Series [11] has as its system Plasmodium falciparum. As to the kind of experiment: Antimalarial activity against multidrug resistant Plasmodium falciparum MRA1239 after 48 hrs in presence of [3H] hypoxanthine. In kind it is functional, organism-based.
The nature of series [12]: Elimination half life in mouse blood at 16 mg/kg, po measured upto 28 days by LC-MS analysis. Format: ADME, organism-based. To be noted: time < 28 day, read-out: LambdaZ (converted).
Series [13] can be described thus: Cmax in mouse blood at 16 mg/kg, po measured upto 28 days by LC-MS analysis. Also on record: time < 28 day, dose 16 mg/kg, route po. In kind it is ADME, organism-based.
In another series the test system is Plasmodium berghei. As to the kind of experiment: In vivo antimalarial activity against Plasmodium berghei infected in mouse administered po for 4 days by Peters 4 day test. Format: functional. To be noted: 96 h.
Series [14] relates to Plasmodium falciparum. Description: Antimalarial activity against multidrug resistant Plasmodium falciparum TM90-C2B after 48 hrs in presence of [3H] hypoxanthine. In kind it is functional, organism-based.
Series [15] has as its system Plasmodium falciparum. Description: Antimalarial activity against multidrug resistant Plasmodium falciparum MRA1240 after 48 hrs in presence of [3H] hypoxanthine. Format: functional, organism-based.
Series [16] relates to Plasmodium falciparum. Description: Antimalarial activity against multidrug resistant Plasmodium falciparum W2 after 48 hrs in presence of [3H] hypoxanthine. In kind it is functional, organism-based.
For series [17], the system named is Plasmodium falciparum. As to the kind of experiment: Antimalarial activity against multidrug resistant Plasmodium falciparum Dd2 incubated for 72 hrs by malaria SYBR green I nucleic acid staining dye based fluorescence assay. To be noted: Dd2, 72 h. In kind it is functional, organism-based.
In series [18] the test system is Plasmodium falciparum. As to the kind of experiment: Antimalarial activity against multidrug resistant Plasmodium falciparum K1 incubated for 72 hrs by malaria SYBR green I nucleic acid staining dye based fluorescence assay. In kind it is functional, organism-based. To be noted: K1, 72 h.

The text below walks through data of ChEMBL document CHEMBL5104092, “An insight into the recent development of the clinical candidates for the treatment of malaria and their target proteins” (Eur J Med Chem, 2021).

In general, CC50 refers to the concentration that lowers cell viability or growth by half. Lower therefore signals greater toxicity to the cells. A word on the EC50: it is the concentration at which the effect is half-maximal. One may read the IC50 as the concentration that inhibits the measured activity by half. Low values mean higher potency, high ones lower potency. For orientation: Cmax means the highest concentration seen after dosing. By ED50 is commonly meant the midpoint of the dose-response relation. Higher therefore signals a need for a large dose.

With `CC(C)C[C@@H](CN1CCN(C)CC1)Nc1ccnc2cc(Cl)ccc12.Cl`, the Activity in the series on Plasmodium yoelii [1] was 100%.
Consider `COc1ccc(NC(=O)N2CCCCN3C[C@H](c4ccc(C#Cc5ccccc5)cc4)[C@@H]3C2)cc1`, for which the CC50 was more than 50 µM in the series with HepG2, 38 µM in the series with A549 and more than 50 µM in series [2]. For the same compound, in the series with Plasmodium falciparum [3], the EC50 was found to be 15 nM.
In the series on Plasmodium falciparum [4], `C=C(c1ccc(C)cc1C)C1COC2(CCC(Nc3ccccc3)CC2)OO1` (configuration not stated) yielded an IC50 of 19.6 nM.
As to `COC(=O)CC[C@@H](C)[C@H]1CCC2C3CC[C@@H]4CC5(CC[C@]4(C)C3C[C@H](OC(C)=O)[C@@]21C)OOC(C)(C)OO5` (some centres not stated), the values for the EC50 with Plasmodium falciparum [5] and in the series with Plasmodium falciparum [6] were 3 nM and 131 nM, respectively.
Regarding `CC(C)C[C@@H](CN1CCN(C)CC1)Nc1ccnc2cc(Cl)ccc12`, the IC50 was found to be 8.8 nM in the series with Plasmodium falciparum [7] and 13.6 nM in the series on Plasmodium falciparum [8]. In the series with Plasmodium yoelii [9], the Activity stood at 100%.
In turn, `CN(C)CCNc1cc(/C=C/c2ccncc2)nc2ccccc12` yielded an IC50 in the series with Plasmodium falciparum [10] of 33 nM.
With `CN(C(=S)NN=C(c1ccccn1)c1ccccn1)c1ccccc1`, the EC50 in the series with Plasmodium falciparum [11] is 6.9 nM; with Plasmodium falciparum [14], 13 nM; in the series with Plasmodium falciparum [15], 9.1 nM; with Plasmodium falciparum [16], 6.2 nM. In addition, in series [12], the half-life is 2920 min. Moreover, the Cmax in [13] was found to be 1880 ng/mL. In the series with Plasmodium berghei, this compound came in with an ED50 of 1.2 mg/kg/day.
Take `C[C@@H]1CCC2[C@@H](C)[C@H](OC(=O)CCC(=O)NCCNc3ccnc4cc(Cl)ccc34)O[C@@H]3O[C@]4(C)CC[C@@H]1[C@@]23OO4` (some centres not stated): the EC50 worked out at 2.7 nM in the series on Plasmodium falciparum [7], 1 nM in the series with Plasmodium falciparum [17] and 0.78 nM in the series with Plasmodium falciparum [18].
